Experiments:
[1] = test system: ovariectomized rats; test: Bone loss in ovariectomized rats (FDA-approved model for testing osteoporosis treatments); format: in vivo
[2] = test system: TGF-β signaling in human breast cancer cells; test: Inhibition of TGF-β signaling in human breast cancer cells; format: cell-based
[3] = test system: breast cancer bone metastasis models; test: Osteolysis in breast cancer bone metastasis models; format: in vivo
[4] = test system: rheumatoid arthritis model; test: Joint inflammation in a rheumatoid arthritis model; format: in vivo

Row | Compound | bone loss [1] | bone-resorbing osteoclasts [1] | TGF-β signaling [2] | osteolysis [3] | joint inflammation [4]
1 | COc1cc(/C=C/C(=O)CC(=O)/C=C/c2ccc(O)c(OC)c2)ccc1O [curcumin] | prevent | decreasing | inhibit | mitigate | prevent
2 | gingerols | – | – | – | – | prevent
3 | shogaols | – | – | – | – | prevent

— patent US20250041389A1, “ENHANCING ABSORPTION OF DIETARY COMPOUNDS TO PROMOTE HEALTH” (ARIZONA BOARD OF REGENTS ON BEHALF OF THE UNIVERSITY OF …, priority 2023, published 2025)
